Reference: patent publication US20240301409A1, “Chemically Modified Small Activating RNA” (RACTIGEN THERAPEUTICS, priority 2021, published 2024)
Oligonucleotides are written 5' to 3', each unit as a sugar letter and its base; * is a phosphorothioate linkage, no mark a phosphodiester; rarer units and linkages stand in square brackets, end groups in braces. Plain capitals give the bases only. m = 2'-O-methyl; r = 2'-OH (RNA); f = 2'-fluoro

Columns and labels:
T24 cells = test: Cellular proliferation assay (CCK8) in T24 cells, alone and combined with Mitomycin C or valrubicin; format: cell-based, human
Source text: After the transfection, the number of viable cells was detected with a CCK8 kit, and plotted as the percentage of the blank control treatment group. […] A transfection sample without oligonucleotide served as a blank control. Non-specific duplex (dsCon) transfected sample served as a negative control. Data are presented as mean±SD of at least two independent experiments. The values below the dashed line indicate stronger growth inhibitory activity compared to duplex Rag1-40 without chemical modification.
T24 cells were transfected with RAG1-40-31 at concentrations of 0.1, 0.5, 1, 5, 10, 25 and 50 nM for 24 hours, and then Mitomycin C was added at concentrations of 1, 10, 100, 1000 and 10000 nM. The combined treatment was carried out with concentrations in pairs. After treatment, the cellular proliferation was detected by CCK8 kit. FIGS. 16A-16B show the relative proliferation proportion of T24 cells after the combined treatment with chemically modified saRNA RAG1-40-31 and valrubicin. […] Control and DMSO are the blank transfection control and the solvent for dilution control, respectively.
T24 cells were transfected with RAG1-40-31 at concentrations of 0.1, 0.5, 1, 5, 10, 25 and 50 nM for 24 hours, and then valrubicin at concentrations of 1, 10, 100, 1000 and 10000 nM was added. The combined treatment was carried out with concentrations in pairs. After treatment, the cellular proliferation was detected by CCK8 kit.
(§1) Human bladder cancer cells Ku-7-LG (ATCC), J82 (ATCC) and T24 (ATCC) were cultured in McCoy medium (Gibco) comprising 10% calf serum (Sigma-Aldrich) and 1% penicillin/Streptomycin (Gibco). Cells were cultured at 37° C. under 5% CO2. Ku-7-LG, J82 and T24 cells were plated into 12-well plates at 10×10^4 cells per well, transfected with the small RNA at a concentration of 10 nM (unless otherwise specified) for three days, using RNAiMax (Invitrogen, Carlsbad, CA) according to the manufacturer's instructions. Two replicate wells were set for each treatment.
(§2) Cells were plated in a 96-well plate at 2˜4×10^3 cells/well, cultured overnight, and transfected with the oligonucleotide duplexes. Three days after transfection, CCK8 (Dojindo) was used to detect cellular proliferation following manufacturer's instructions. The experimental steps are briefly described as follows: 10 μL of CCK8 solution was added to each well, incubated at 37° C. for 1 hour, and then the absorbance at 450 nm was measured using a microplate reader.
It is known that p21 induction by saRNA is that a variety of tumor suppressor factors such as p21 protein suppress the proliferation of cancer cells. To evaluate the effect of chemically modified saRNAs on the function of cancer cells, cells (Ku-7-LG and T24) were transfected with 10 nM unmodified and modified saRNAs for 72 hours, and the cellular proliferation was determined by CCK8. […] Furthermore, there was a correlation between RNA activating activity (FIGS. 7A-7B) and suppression of cellular proliferation activity (FIGS. 8A-8B). Strong p21 activators are usually also strong cytostatics.

J82 cells = test: Cellular proliferation assay (CCK8) in J82 cells, combined with Mitomycin C or valrubicin; format: cell-based, human
Protocol: J82 cells were transfected with RAG1-40-31 at concentrations of 0.1, 0.5, 1, 5, 10, 25 and 50 nM for 24 hours, and then Mitomycin C at concentrations of 1, 10, 100, 1000 and 10000 nM was added. The combined treatment was carried out with concentrations in pairs. After treatment, the proliferation of cells was detected using CCK8 kit. FIGS. 14A-14B show the relative proliferation proportion of J82 cells after the combined treatment with chemically modified saRNA RAG1-40-31 and valrubicin. […] Control and DMSO are the blank transfection control and the solvent for dilution control, respectively.
J82 cells were transfected with RAG1-40-31 at concentrations of 0.1, 0.5, 1, 5, 10, 25 and 50 nM for 24 hours, and then valrubicin at concentrations of 1, 10, 100, 1000 and 10000 nM was added. The combined treatment was carried out with concentrations in pairs. After treatment, the cellular proliferation was detected by CCK8 kit. FIGS. 15A-15B show the relative proliferation proportion of T24 cells after the combined treatment with chemically modified saRNA RAG1-40-31 and Mitomycin C. […] Control and DMSO are the blank transfection control and the solvent for dilution control, respectively.
as §1, §2
In this example, chemically modified saRNA RAG1-40-31 was used in combination with clinical chemical agents to evaluate the suppressing effect of the combined agents on cancer cells.

RNase A = target: T1, RNase A (Bos taurus, UniProt P61823)
T1 sequence (P61823 27-150): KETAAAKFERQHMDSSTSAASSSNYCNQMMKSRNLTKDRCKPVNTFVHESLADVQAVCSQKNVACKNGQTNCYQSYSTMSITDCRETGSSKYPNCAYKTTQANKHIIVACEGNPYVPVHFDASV

[1] = tested on: Rag1-40 target sequence in the 3′ UTR of firefly luciferase, COS-1 cells

CO[C@@]12[C@H](COC(N)=O)C3=C(C(=O)C(C)=C(N)C3=O)N1C[C@@H]1N[C@@H]12 [MMC, Mitomycin C, reference compound]
Relative proliferation proportion of T24 cells (T24 cells; RAG1-40-31 0 nM + MMC 1 nM): 100.0% | Relative proliferation proportion of T24 cells (T24 cells; RAG1-40-31 0 nM + MMC 10 nM): 100.0% | Relative proliferation proportion of T24 cells (T24 cells; RAG1-40-31 0 nM + MMC 100 nM): 100.0% | Relative proliferation proportion of T24 cells (T24 cells; RAG1-40-31 0 nM + MMC 1000 nM): 100.0% | Relative proliferation proportion of T24 cells (T24 cells; RAG1-40-31 0 nM + MMC 10000 nM): 100.0% | Relative proliferation proportion of J82 cells (J82 cells; RAG1-40-31 0 nM + MMC 1 nM): 99.9% | Relative proliferation proportion of J82 cells (J82 cells; RAG1-40-31 0 nM + MMC 10 nM): 99.9% | Relative proliferation proportion of J82 cells (J82 cells; RAG1-40-31 0 nM + MMC 100 nM): 99.9% | Relative proliferation proportion of J82 cells (J82 cells; RAG1-40-31 0 nM + MMC 1000 nM): 100.0% | Relative proliferation proportion of J82 cells (J82 cells; RAG1-40-31 0 nM + MMC 10000 nM): 100.0%

CCCCC(=O)OCC(=O)[C@]1(O)Cc2c(O)c3c(c(O)c2[C@@H](O[C@H]2C[C@H](NC(=O)C(F)(F)F)[C@H](O)[C@H](C)O2)C1)C(=O)c1c(OC)cccc1C3=O [valrubicin, Valrubicin, reference compound]
Relative proliferation proportion of T24 cells (T24 cells; RAG1-40-31 0 nM + valrubicin 1 nm): 100.0% | Relative proliferation proportion of T24 cells (T24 cells; RAG1-40-31 0 nM + valrubicin 10 nm): 100.0% | Relative proliferation proportion of T24 cells (T24 cells; RAG1-40-31 0 nM + valrubicin 100 nm): 100.0% | Relative proliferation proportion of T24 cells (T24 cells; RAG1-40-31 0 nM + valrubicin 1000 nm): 100.0% | Relative proliferation proportion of T24 cells (T24 cells; RAG1-40-31 0 nM + valrubicin 10000 nm): 100.0% | Relative proliferation proportion of J82 cells (J82 cells; RAG1-40-31 0 nM + valrubicin 1 nM): 100.0% | Relative proliferation proportion of J82 cells (J82 cells; RAG1-40-31 0 nM + valrubicin 10 nM): 100.0% | Relative proliferation proportion of J82 cells (J82 cells; RAG1-40-31 0 nM + valrubicin 100 nM): 100.0% | Relative proliferation proportion of J82 cells (J82 cells; RAG1-40-31 0 nM + valrubicin 1000 nM): 100.0% | Relative proliferation proportion of J82 cells (J82 cells; RAG1-40-31 0 nM + valrubicin 10000 nM): 100.0%

Rag1-40-2: saRNA duplex: sense mCmCAACUCAUUCUCCAAGmUmC (SEQ ID NO 5); antisense fUACUfUGGAGAAfUGAGUfUGGfCA (SEQ ID NO 7) (sense CCAACUCAUUCUCCAAGUC; antisense UACUUGGAGAAUGAGUUGGCA; 2'-OMe and 2'-F modifications; modified_base (1)..(19) (1,2,18,19)=2′-O-methyl(2′-OMe); modified_base (1)..(20) (1,5,12,17,20)=2′-fluoro)
time to complete degradation (RNase A): ≤ 24 h | off-target effect compared to unmodified Rag1-40, in words [1]: mitigated or similar off-target effects

Rag1-40-4: saRNA duplex: sense mCmCAACUCAUUCUCCAAGmUmC (SEQ ID NO 5); antisense fUACUfUGGAGAAfUGAGUfUGG*fC*A (SEQ ID NO 9) (sense mCmCrArArCrUrCrArUrUrCrUrCrCrArArGmUmC; antisense fUrArCrUfUrGrGrArGrArAfUrGrArGrUfUrGrG*fC*rA)
time to complete degradation (RNase A): ≤ 24 h | off-target effect compared to unmodified Rag1-40, in words [1]: completely inhibited

Rag1-40-6: saRNA duplex: sense mCmCAACUCAUUCUCCAAGmUmC (SEQ ID NO 5); antisense fU*A*fCfUfUGGAGAAfUGAGfUfUGG*fC*A (SEQ ID NO 11) (sense mCmCrArArCrUrCrArUrUrCrUrCrCrArArGmUmC; antisense fU*rA*fCfUfUrGrGrArGrArAfUrGrArGfUfUrGrG*fC*rA)
degradation of duplex at 96 hours (RNase A): little or no signs of degradation | off-target effect compared to unmodified Rag1-40, in words [1]: mitigated or similar off-target effects

Rag1-40-7: saRNA duplex: sense mCmCAACUCAUUCUCCAAGmUmC (SEQ ID NO 5); antisense U*A*fCfUfUGGAGAAfUGAGfUfUGG*fC*A (SEQ ID NO 12) (sense mCmCrArArCrUrCrArUrUrCrUrCrCrArArGmUmC; antisense rU*rA*fCfUfUrGrGrArGrArAfUrGrArGfUfUrGrG*fC*rA)
degradation of duplex at 96 hours (RNase A): little or no signs of degradation | off-target effect compared to unmodified Rag1-40, in words [1]: mitigated or similar off-target effects

Rag1-40-10: saRNA duplex: sense fCfCAACUCAUUCUCCAAGfUfC (SEQ ID NO 14); antisense fUACUfUGGAGAAfUGAGUfUGGfCA (SEQ ID NO 7) (sense CCAACUCAUUCUCCAAGUC; antisense UACUUGGAGAAUGAGUUGGCA; 2'-F modifications; modified_base (1)..(19) (1,2,18,19)=2′-fluoro; modified_base (1)..(20) (1,5,12,17,20)=2′-fluoro)
time to complete degradation (RNase A): ≤ 24 h | off-target effect compared to unmodified Rag1-40, in words [1]: completely inhibited

Rag1-40-12: saRNA duplex: sense fCfCAACUCAUUCUCCAAGfUfC (SEQ ID NO 14); antisense fUACUfUGGAGAAfUGAGUfUGG*fC*A (SEQ ID NO 9) (sense CCAACUCAUUCUCCAAGUC; antisense UACUUGGAGAAUGAGUUGGCA; 2'-F and phosphorothioate modifications; modified_base (1)..(19) (1,2,18,19)=2′-fluoro; modified_base (1)..(20) (1,5,12,17,20)=2′-fluoro; modified_base (19)..(21) (19,20,21)=phosphorothioate (PS) backbone modification)
time to complete degradation (RNase A): ≤ 24 h | off-target effect compared to unmodified Rag1-40, in words [1]: mitigated or similar off-target effects

Rag1-40-18: saRNA duplex: sense mCmCAACUCAUUCUCCAAG*U*C (SEQ ID NO 15); antisense fUACUfUGGAGAAfUGAGUfUGGfCA (SEQ ID NO 7) (sense CCAACUCAUUCUCCAAGUC; antisense UACUUGGAGAAUGAGUUGGCA; 2'-OMe, 2'-F, phosphorothioate modifications; modified_base (1)..(2) (1,2)=2′-O-methyl(2′-OMe); modified_base (17)..(19) (17,18,19)=phosphorothioate (PS) backbone modification; modified_base (1)..(20) (1,5,12,17,20)=2′-fluoro)
time to complete degradation (RNase A): ≤ 24 h | off-target effect compared to unmodified Rag1-40, in words [1]: mitigated or similar off-target effects

Rag1-40-20: saRNA duplex: sense mCmCAACUCAUUCUCCAAG*U*C (SEQ ID NO 15); antisense fUACUfUGGAGAAfUGAGUfUGG*fC*A (SEQ ID NO 9) (sense CCAACUCAUUCUCCAAGUC; antisense UACUUGGAGAAUGAGUUGGCA; 2'-OMe, 2'-F, phosphorothioate modifications; modified_base (1)..(2) (1,2)=2′-O-methyl(2′-OMe); modified_base (17)..(19) (17,18,19)=phosphorothioate (PS) backbone modification; modified_base (1)..(20) (1,5,12,17,20)=2′-fluoro; modified_base (19)..(21) (19,20,21)=phosphorothioate (PS) backbone modification)
time to complete degradation (RNase A): ≤ 24 h | off-target effect compared to unmodified Rag1-40, in words [1]: mitigated or similar off-target effects
